Among the data in ChEMBL document CHEMBL6121001, “Benzimidazole analogues active against adult Schistosoma mansoni: SAR analyses, In vivo efficacy in mice, and preliminary mechanistic studies as potential inhibitors of hemozoin formation” (Eur J Med Chem, 2025) are Papp values, retold here.

The nature of the data set: Apparent permeability of compound at 1 mM incubated for 4 hrs by PAMPA based LC-MS/MS analysis. It counts as ADME. Background: The PAMPA barrier holds no transporters, so it reflects passive diffusion.
`Oc1ncccc1CN1CCC(Nc2nc3ccccc3n2Cc2ccc(C(F)(F)F)cc2)CC1`: the Papp (as a rule, the rate of passage across a membrane or cell layer, normalised by area and donor concentration) at 4 h, 1000 µM worked out at 0.18 ×10⁻⁶ cm/s.
For `FC(F)(F)c1ccc(Cn2c(NC3CCN(Cc4ccccc4)CC3)nc3ccccc32)cc1`, the Papp at 4 h, 1000 µM turned out to be 18 ×10⁻⁶ cm/s.
Next, `Oc1ccccc1CN1CCC(Nc2nc3ccccc3n2Cc2ccc(C(F)(F)F)cc2)CC1`: 23 ×10⁻⁶ cm/s.
